{"source": "patent US20150259371A1", "about": "“METHODS AND COMPOUNDS FOR INHIBITING GLYCOSYLTRANSFERASES” (SIMON FRASER UNIVERSITY, priority 2010, published 2015)", "key": {"[1]": {"tested_on": "O-GlcNAc levels in COS-7 cells", "assay": "Western blot of O-GlcNAc levels (CTD110.6) in treated COS-7 cells", "type": "cell-based, African green monkey", "experimental": "Cell culture: Cells were grown in an incubator at 37° C. and 5% CO2 atmosphere. Media and serum were purchased from Invitrogen. COS-7 cells were cultured in Dulbecco's modified Eagle's medium (DMEM) with 5% fetal bovine serum (FBS), and were typically 80-100% confluent prior to experimentation. HepG2, SK-N-SH, and EMEG32^−/− cells were cultured in Dulbecco's modified Eagle's medium (DMEM) with 5% fetal bovine serum (FBS), CHO cells in DMEMF-12 with 5% FBS and PC12 cells in DMEM with 5% FBS and 5% horse serum. Prior to experimentation, PC12 cells were plated at a density of 3-4×10^5 cells10 cm plate, which had been pre-treated with 5 μgcm^2 rat tail collagen (BD Biosciences). Cells were differentiated in DMEM containing 1% horse serum, in the presence of 2.5S mouse nerve growth factor (Chemicon) at a final concentration of 25 ng mL^−1, for 4-5 days prior to treatment. Other cell lines were 80-100% confluent prior to treatment. Following treatment with (Ac-)5SGlcNAc, using various conditions, cells were washed gently with PBS, lysed in SDS loading buffer and boiled for 10 minutes. Mouse hybridoma cells (obtained from the Developmental Studies Hybridoma Bank; antibody E7 for (:1-tubulin) were cultured in RPMI40 with 10% FBS. Prior to treatment with Ac-5SGlcNAc, hybridoma cells were cultured for 2 days in RPMI40 with 5% FBS, and during treatment in RPMI40 with no serum. Cells were collected, centrifuged (800 x g, 5 min) and the supernatant removed. Cells were washed with PBS, centrifuged, the pellet resuspended in SDS loading buffer and boiled. The supernatant after centrifugation, which contained the IgG antibody produced by the cells, was used for immunoprecipitation (see below for details).\n(§1) Westernlectin blots: Samples were run on 10% SDS polyacrylamide gels and transferred onto nitrocellulose membranes (Biorad). Membranes were blocked for 1 h in PBS containing 0.1% Tween-20 (PBS-T) containing 1% (unless otherwise stated) bovine serum albumin (BSA), and probed with the appropriate primary antibody or lectin in 1% BSA in PBS-T overnight at 4° C. Blots were washed for 1 hr with PBS-T, and blocked for a further 30 min with 1% BSA in PBS-T at room temperature. They were then probed with the appropriate horseradish peroxidise (HRP)-conjugated secondary antibodyprobe in 1% BSA in PBS-T at room temperature for 1 h, followed by washing in PBS-T for 1 h. Blots were developed with SuperSignal West Pico Chemiluminescent Substrate (Pierce) and exposed to CL-XPosure film (Pierce). Densitometry was performed using ImageQuant 5.2 (Molecular Dynamics), and fits to the data were made using GRAFIT^41.\nAntibodieslectins: O-GlcNAc levels were assessed primarily using CTD110.6 (Covance), but RL2 (Abcam) and HGAC85 (Abcam) were also tested. Actin was probed using JLA20 (Developmental Studies Hybridoma Bank). OGA levels were assessed using a polyclonal anti-OGA antibody which was a kind gift from Dr. Gerald Hart and OGT levels using H-300 (Santa Cruz Biotechnology). nup62 was probed using mAb 414 (Covance). Secondary antibodies employed (HRP-conjugated goat anti-mouse IgM, goat anti-mouse IgG, goat anti-chicken IgY and goat anti-rabbit IgG) were obtained from Santa Cruz Biotechnology. Biotinylated-ConA, PHA-L, SNA and MAA were purchased from EY Laboratories, and biotinylated-GNA from Vector Laboratories. HRP-conjugated streptavidin (Pierce) was used as a probe for the biotinylated lectins.\nAnalogues (9, 10, 17-41) were tested in COS-7 cells, dosed at a final concentration of 50 μM in DMSO for 24 h. Following treatment, cells were washed with PBS, harvested into SDS-PAGE loading buffer and analyzed by western blot using standard procedures; blots were probed with the anti-O-GlcNAc antibody (CTD 110.6)."}, "[2]": {"tested_on": "N-glycosylation in COS-7 cells", "assay": "Lectin blots of glycans in treated COS-7 cells", "type": "cell-based, African green monkey", "settings": "COS-7, 0-1000 μM, 24 h", "experimental": "as §1, with “Blots were developed with SuperSignal West Pico Chemiluminescent Substrate (Pierce) and exposed to CL-XPosure film (Pierce). Densitometry was performed using ImageQuant 5.2 (Molecular Dynamics), and fits to the data were made using GRAFIT^41.” left out\nAntibodieslectins: O-GlcNAc levels were assessed primarily using CTD110.6 (Covance), but RL2 (Abcam) and HGAC85 (Abcam) were also tested. […] OGA levels were assessed using a polyclonal anti-OGA antibody which was a kind gift from Dr. Gerald Hart and OGT levels using H-300 (Santa Cruz Biotechnology). nup62 was probed using mAb 414 (Covance). […]\nTo assess whether cell surface glycosylation could be affected through changes in UDP-GlcNAc availability or inhibition of GlcNAc transferases within the secretory pathway, we treated COS-7 cells with a range of Ac-5SGlcNAc concentrations and evaluated the effect on various glycans using lectin blots. […]"}, "OGA": {"tested_on": "OGA", "assay": "Western blot of OGA levels in treated COS-7 cells", "type": "cell-based, African green monkey", "settings": "50 μM, 24 h", "experimental": "as §1\nAntibodieslectins: O-GlcNAc levels were assessed primarily using CTD110.6 (Covance), but RL2 (Abcam) and HGAC85 (Abcam) were also tested. Actin was probed using JLA20 (Developmental Studies Hybridoma Bank). OGA levels were assessed using a polyclonal anti-OGA antibody which was a kind gift from Dr. Gerald Hart and OGT levels using H-300 (Santa Cruz Biotechnology). nup62 was probed using mAb 414 (Covance). […]"}, "[3]": {"tested_on": "O-GlcNAc levels in primary CLL cells", "assay": "Western blot of O-GlcNAc levels in primary CLL cells", "type": "cell-based", "settings": "0-250 μM, 5 days", "experimental": "Primary CLL cells, obtained from Dr. David Spaner at the University of Toronto, were tested for their response to Ac-5SGlcNAc (9). Cells were plated at a confluency of 1 million cells/mL, and treated with between 0-250 μM 9, in the presence or absence of cytokine (1000 U/mL IL-2 and 1 μg/mL Resiquimod) stimulation to mimic cancer progression. Cells were observed over the course of 5 days, and harvested after this time into SDS-PAGE loading buffer before being subjected to western blotting."}}, "note": "“Also recorded” adds a separate entry of the source."}
{"smiles": "CC(=O)NC1C(OC(C)=O)SC(COC(C)=O)C(OC(C)=O)C1OC(C)=O", "note": "[Compound 9, N-Acetyl-1,3,4,6-tetra-O-acetyl-α-D-5-thio-glucosamine]", "values": [{"measurement": "O-GlcNAc levels on dosing for 5 days", "setting": "[1]; 50 μM, 5 days", "result": "O-GlcNAc levels dropped in the first day and remained low"}, {"measurement": "O-GlcNAc levels, time course", "setting": "[1]; 50 μM, hours, listed as Ac-5SGlcNAc", "result": "almost no O-GlcNAc being detectable after 24 hours; also recorded: O-GlcNAc levels diminish to a low level by 24 h"}, {"measurement": "effect on O-GlcNAc levels, dose response", "setting": "[1]; 24 hours", "result": "decreased O-GlcNAc levels in a dose-dependent fashion"}, {"measurement": "EC50", "setting": "[1]; Chlorocebus sabaeus, 24 h, densitometry of western blot, read-out: EC50 for reduction of O-GlcNAc levels", "result": 5, "unit": "µM"}, {"measurement": "time for O-GlcNAc to return to basal levels after change to media without compound", "setting": "[1]; after 50 μM for 24 h", "result": "≤ 24", "unit": "h"}, {"measurement": "glycosylation by lectin blots (ConA, GNA, PHA-L, SNA, MAA)", "setting": "[2]", "result": "All lectins tested showed no change in glycosylation"}, {"measurement": "OGA levels", "setting": "OGA", "result": "compensatory decrease in OGA levels"}, {"measurement": "O-GlcNAc levels", "setting": "[3]", "result": "O-GlcNAc levels were decreased in a dose-dependent fashion"}]}
